Publication PMC5037758, “Affinity of ^nat/68Ga-Labelled Curcumin and Curcuminoid Complexes for β-Amyloid Plaques: Towards the Development of New Metal-Curcumin Based Radiotracers” (International Journal of Molecular Sciences, 2016)

Tests used:
[1] = molecular target: T1, amyloid β-protein (1–40) (Homo sapiens, UniProt P05067); assay: direct radioligand binding to fibrils with displacement by curcumin; fluorescence microscopy
T1 construct: gene APP; Aβ(1–40) synthetic amyloid fibrils

[2] = molecular target: T1, amyloid β-protein (1–40); assay: direct radioligand binding to fibrils (not displaced by curcumin, lower specificity); fluorescence microscopy

T1 sequence (P05067 672-711): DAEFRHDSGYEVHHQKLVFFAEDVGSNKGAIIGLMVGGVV

Row | Substance | % bound [1] [% bound] | % bound [2]
1 | ^68Ga(CUR)2^+ | > 90 | 
2 | ^68Ga(bDHC)2^+ |  | ~ 50 % bound
3 | ^68Ga(DAC)2^+ | > 90 | 
